Assay results from patent publication US9216165B2, “Combination of a statin and a taxane for the treatment of gastric cancer” (INSERM (Institut National de la Sante et de la Recherche …, priority 2011, dated 2015).

Tests used:
[1] = system: HGT-1 human gastric cancer cells; assay: Apoptosis by Hoechst 33342 staining in HGT-1 cells; format: cell-based; settings: for apoptosis: HGT-1
Experimental: HGT-1 human gastric cancer cells were grown at 37° C. under a humidified atmosphere of 5% CO2 in DMEM (Dulbecco's modified Eagle's medium) (Lonza, Saint Beauzire, France), containing 4.5 g/L glucose and supplemented with 5% fetal bovine serum without antibiotics (Gibco-Invitrogen, Cergy Pontoise, France).
(§1) Apoptosis was determined by Hoechst 33342 (10 μg/ml in PBS) staining of the cells for 15 min at 37° C. and fluorescence microscopy analysis of 300 cells per condition, from replicate cultures.

[2] = system: docetaxel-resistant HGT-1 cells (D5)
Experimental: Selection of the docetaxel-resistant cell populations was performed with mass cultures grown in complete medium supplemented with 5 nM docetaxel. […] Cells were constantly grown in presence of 5 nM docetaxel, excepted for the cell passage that preceded the experiments that involved drug treatments. […]

HGT-1 cells [3] = assay: mRNA levels by quantitative real-time RT-PCR in HGT-1 cells; format: cell-based, human; settings: 48 h
Experimental: Total RNA was isolated using Trizol (Invitrogen, Cergy-Pontoise, france) and the RNA samples were used for the first-strand cDNA synthesis with the High Capacity cDNA Reverse Transcription kit and random hexamer primers (Applied biosystems). Quantitative real-time RT-PCR was performed using the Power SYBR Green Kit (Applied biosystems) according to the manufacturer's instructions. mRNA levels were analyzed in duplicate, normalized against GAPDH or phospho-protein P0 as an internal control gene. The results are expressed as the relative gene expression using the ΔΔCt method (Livak and Schmittgen 2001). The primer sequences and reaction conditions will be provided upon request.

D5 cells [4] = assay: p21 mRNA by RT-PCR in D5 cells; format: cell-based, human; settings: data not shown
Experimental: Selection of the docetaxel-resistant cell populations was performed with mass cultures grown in complete medium supplemented with 5 nM docetaxel. […] Cells were constantly grown in presence of 5 nM docetaxel, excepted for the cell passage that preceded the experiments that involved drug treatments.

HGT-1 cells [5] = assay: Protein levels by western blotting in HGT-1 cells; format: cell-based, human
Experimental: (§2) The cells were harvested, washed in PBS and lysed in ripa buffer (50 mM Tris HCl pH7.4, 150 mM NaCl, 0.5% Sodium deoxycholate, 0.1% SDS, 1% NP40, 1 mM EDTA, 1 mM PMSF) containing protease inhibitor cocktail (Roche, Meylan, France) and phosphatase inhibitor (Active motif) for 10 min at 4° C. Sixty micrograms of proteins were boiled in Laemmli sample buffer (Bio-Rad) for 5 min, separated by SDS-PAGE using 12% or 15% polyacrylamide gels and blotted onto polyvinyl difluoride membranes (GE Healthcare). Non specific binding sites were blocked for 1 h at room temperature by 5% (wt/v) fat-free milk before overnight incubation at 4° C. with specific rabbit (or mouse for cyclin B1) anti-human antibodies: aurora kinase A and B, procaspase-3, PARP, Bcl-2, Bax and survivin (Cell Signaling Technology-Ozyme, Saint Quentin en Yvelines, France), p27, p21, Mcl-1, cyclin B1 (Santa Cruz biotechnology, Tebu-bio, le Perray en Yvelines, France), cyclin D1 (NeoMarkers, Thermo Fisher Scientific, Illkirch, France) or HSC70 (Abcam, Paris, France) as a loading control. Anti-phospho-ERK1/2 was a mouse monoclonal antibody against a synthetic phosphopeptide (residues around threonine 202 and […] of human p44 MAPK, Cell Signaling Technology, Ozyme, France). Polyclonal antibodies against ERK1 (rabbit, sc-94) or ERK2 (rabbit, sc-154) and phospho-MEK1/2 were from Santa Cruz Biotechnology (Tebu-bio). Rabbit anti-phospho-JNK (Cell Signaling, Saint-Quentin en Yvelines, France) and rabbit polyclonal antibody anti-P38 (Santa Cruz Biotechnology, Tebu-bio). Primary antibodies were detected with a horseradish peroxidase-conjugated IgGs (GE Healthcare, Orsay, France).

D5 cells [6] = assay: Protein levels by western blotting in D5 cells; format: cell-based, human; settings: 2.5 μM lovastatin, 72 h
Experimental: as §2, with “Polyclonal antibodies against ERK1 (rabbit, sc-94) or ERK2 (rabbit, sc-154) and phospho-MEK1/2 were from Santa Cruz Biotechnology (Tebu-bio). Rabbit anti-phospho-JNK (Cell Signaling, Saint-Quentin en Yvelines, France) and rabbit polyclonal antibody anti-P38 (Santa Cruz Biotechnology, Tebu-bio).” left out

[7] = system: lovastatin-resistant HGT-1-derived cells; assay: Apoptosis in lovastatin-resistant HGT-1-derived cells; format: cell-based, human; settings: data not shown
Experimental: as §1

Z-VAD-fmk
effect on docetaxel-induced cell death ([1]; HGT-1, with docetaxel): suppress cell death

CC[C@H](C)C(=O)O[C@H]1C[C@@H](C)C=C2C=C[C@H](C)[C@H](CC[C@@H]3C[C@@H](O)CC(=O)O3)[C@H]21 [lovastatin]
apoptosis ([1]; 12.5 μM lovastatin, 48 h): 35%
apoptosis ([1]; 2.5 or 5 μM lovastatin, 48 or 72 h): up to 32%
apoptosis ([2]; 2.5 or 5 μM lovastatin, 48 or 72 h, D5 cells): up to 55%
p27 expression (HGT-1 cells [3]; 12.5 μM lovastatin alone or with 5 or 10 nM docetaxel): slightly reduced
p21 mRNA induction (HGT-1 cells [3]; 12.5 μM lovastatin): up to 4 fold
LDL-R, HMG-CoA reductase, FPPS and FAS mRNA levels (HGT-1 cells [3]): induced
aurora kinase B and survivin mRNA (HGT-1 cells [3]): repressed
cyclin B1, cyclin D1 and aurora kinase A mRNA (HGT-1 cells [3]): reduced expression of all transcripts
induction of p21 mRNA in D5 cells compared with HGT-1 (D5 cells [4]): stronger
phospho-MEK1/2, phospho-ERK1/2 and p38 MAP kinase levels (HGT-1 cells [5]): decreased
phosphorylated jun kinase (JNK) (HGT-1 cells [5]): induced
Bax protein (HGT-1 cells [5]; 48 h): slightly suppressed
Caspase-3 and PARP cleavage (HGT-1 cells [5]; 48 h): cleaved
Mcl-1 protein (HGT-1 cells [5]; 48 h): suppressed
cyclin B1, D1, aurora kinase A, B and survivin protein levels (HGT-1 cells [5]; 48 h): decrease in all proteins
over-expressed survivin and cyclin B1 proteins in D5 cells (D5 cells [6]): fully suppressed
p27 protein in D5 cells (D5 cells [6]): induced

CC(=O)O[C@@]12CO[C@@H]1C[C@H](O)[C@@]1(C)C(=O)[C@H](O)C3=C(C)[C@@H](OC(=O)[C@H](O)[C@@H](NC(=O)OC(C)(C)C)c4ccccc4)C[C@@](O)([C@@H](OC(=O)c4ccccc4)[C@H]21)C3(C)C [docetaxel, Docetaxel]
apoptosis ([1]; 5 nM docetaxel, 48 h): 15%
apoptosis ([1]; 10 nM docetaxel, 48 h): 27%
p21 expression (HGT-1 cells [3]; 5 or 10 nM docetaxel): induced
aurora kinase B and survivin mRNA (HGT-1 cells [3]): weakly induced
phospho-MEK1/2, phospho-ERK1/2 and p38 MAP kinase levels (HGT-1 cells [5]): had no effect
phosphorylated jun kinase (JNK) (HGT-1 cells [5]): had no effect
Bax protein (HGT-1 cells [5]; 48 h): remained unchanged
Caspase-3 and PARP cleavage (HGT-1 cells [5]; 48 h): cleaved
Mcl-1 protein (HGT-1 cells [5]; 48 h): suppressed
cyclin B1, D1, aurora kinase A, B and survivin protein levels (HGT-1 cells [5]; 48 h): decrease in these proteins
survivin protein levels (HGT-1 cells [5]; 48 h): strongly induced
cyclin B1 protein (HGT-1 cells [5]; docetaxel, 48 h): slightly increased
apoptosis compared with HGT-1 parental cells [7]: higher level

CC[C@]1(O)C[C@@H]2CN(CCc3c([nH]c4ccccc34)[C@@](C(=O)OC)(c3cc4c(cc3OC)N(C)[C@H]3[C@@](O)(C(=O)OC)[C@H](OC(C)=O)[C@]5(CC)C=CCN6CC[C@]43[C@@H]65)C2)C1 [vinblastine]
apoptosis ([1]; 1 nM vinblastine, 48 h): about 30%
vinblastine-induced apoptosis in D5 cells ([2]; 1 nM vinblastine, 48 h): resistant
